This data set in a line: Pharmacokinetic evaluation in mice. The following applies: ICR mice; for AUC(0-inf) / AUC(0-t) / Cmax / Tmax / bioavailability / MRT last / Vd: mouse, plasma; for bioavailability: IG 10 mg/kg vs IV 1 mg/kg, read-out: Absolute bioavailability F %; for MRT last: read-out: MRT(0-t). Further details: Cl: unit not given here. It is filed as in vivo. How it is done:
ICR mice, weight 18-22 g, after adaption for 3-5 days, were randomly divided into 4 groups of 9 mice, each group was intragastrically (IG) administered with compound 28 or compound 30 at a dose of 10 mg/kg, or intravenously (IV) administered with compound 28 or compound 30 at a dose of 1 mg/kg.
The animals to be tested (ICR mice) were fasted for 12 h before administration and food was provided 4 h after administration, and water was freely drunk before and after the experiment and during the experiment.
After intragastric administration, about 0.1 mL of blood was taken from eye sockets at 15 min, 30 min, 1 h, 2 h, 3 h, 4 h, 6 h, 8 h, 10 h, and 24 h; after intravenous injection, about 0.1 mL of blood was taken from eye sockets at 5 min, 10 min, 30 min, 1 h, 2 h, 4 h, 6 h, 8 h, 10 h, and 24 h; each mouse was collected at 3-4 time points and 3 mice were collected at each time point, whole blood was collected, placed in centrifuge tubes containing EDTA-K2, and stored at 4° C. within 1 h, and the plasma was separated off by centrifugation at 4° C. and 4000 rpm for 10 min. All the plasma samples were collected and immediately stored at −20° C. for testing. 30 μL of the plasma sample to be tested and a standard curve sample were pipetted and added with 300 μL of acetonitrile solution containing an internal standard (20 ng/mL diazepam), shaken and mixed well for 5 min, and centrifuged at 13,000 rpm for 10 min. 80 μL of supernatant was taken and diluted with 80 μL of ultrapure water. After being mixed well, 2 μL of the resulting sample was taken for liquid chromatography-mass determination, and a chromatogram was recorded.
Oral and intravenous exposure of the compound of the present application was evaluated by in vivo pharmacokinetic experiment in mice.

Like-named read-outs stand apart in the source and are kept apart here.

As to `CC(=O)N1CC2(C1)CN(c1cccc(-c3ccc4nc(-c5cccnc5N)n(-c5ccc(C6(N)CCC6)cc5)c4n3)c1F)C2` [Compound 28], the t1/2z (IG 10 mg/kg) worked out at 5.31 h. For the same compound, where the note is “IV 1 mg/kg”, the Cl came to 3.95, the t1/2z is 1.74 h, the AUC(0-inf) stood at 253 ng·h/mL and the AUC(0-t) stood at 246 ng·h/mL. In addition, for the setting “IV 1 mg/kg”, the Vd was found to be 9.92 L/kg and the MRT last is 1.49 h. Moreover, for the setting “po, IG 10 mg/kg”, the AUC(0-inf) turned out to be 896 ng·h/mL, the AUC(0-t) worked out at 871 ng·h/mL, the peak level (Cmax) was 140 ng/mL and the time of peak concentration (Tmax) was determined as 2 h. The MRT last (po, IG 10 mg/kg) was determined as 5.28 h. Moreover, for the setting “po”, the bioavailability stood at 35.4%.
The compound `Nc1ncccc1-c1nc2ccc(-c3cccc(N4CCC(N5CCCC5=O)CC4)c3F)nc2n1-c1ccc(C2(N)CCC2)cc1` [Compound 30] had a t1/2z (IG 10 mg/kg) of 6.58 h. Where the note is “IV 1 mg/kg”, this compound came in with a Cl of 2.08, a t1/2z of 1.48 h, an AUC(0-inf) of 482 ng·h/mL and an AUC(0-t) of 476 ng·h/mL. In addition, where the note is “IV 1 mg/kg”, the Vd was 4.43 L/kg and the MRT last amounted to 1.04 h. Under “po, IG 10 mg/kg”, the AUC(0-inf) came out at 2880 ng·h/mL, the AUC(0-t) was 2770 ng·h/mL, the Cmax was found to be 542 ng/mL and the Tmax is 2 h. Besides, where the note is “po, IG 10 mg/kg”, the MRT last amounted to 5.01 h. For the same compound, the bioavailability (po) was 58.2%.

One may read the AUC(0-inf) as the area under the concentration-time curve extrapolated to infinity. The term AUC(0-t) denotes the area under the concentration-time curve up to a stated or last time point. In general, Cmax refers to the maximum level reached in the sampled fluid or tissue. Usually Tmax stands for the time from dosing to the highest level. Usually bioavailability stands for the share of a dose that reaches the circulation, judged against a reference dose that is usually intravenous. Broadly, the Vd is the apparent volume that relates the amount in the body to the concentration in plasma or blood.
